Results reported in patent publication US11851389B2, “Cationic lipids for nucleic acid delivery and preparation thereof” (RAMOT AT TEL-AVIV UNIVERSITY LTD., priority 2016, dated 2023).

Tests used:
[1] = LNP size distribution, PDI and ζ potential by dynamic light scattering; assay type: physicochemical; details: LNP-siRNA formulations; for PDI / Size (d · nm): DLS
Experimental: LNPs were prepared by using microfluidic micro mixture (Precision NanoSystems, Vancouver, BC, Canada) as described by Cohen et. al. One volume of lipid mixtures (cationic lipid, DSPC, Chol, DMG-PEG and DSPE-PEG Mal at 50:10:38:1.5:0.5 mole ratio, […] total lipid concentration) in ethanol and three volumes of siRNA (1:16 w/w siRNA to lipid) containing acetate buffer solutions were injected through the micro mixer at a combined flow rate of 2 mL/minute (0.5 mL/min for ethanol and 1.5 mL/min for aqueous buffer). For labeled LNPs, 10% of Alexa-647 labeled siRNA were incorporated. For Cy5 labeled particles, 10% Cy5 labeled non-targeted siRNA was used. The resultant mixture was dialyzed against PBS (pH 7.4) for 16 h to remove ethanol.
LNPs size distribution and ζ potential were determined by dynamic light scattering using a Malvern nano ZS ζ-sizer (Malvern instruments, UK). For size measurements, LNPs were diluted 1:20 in PBS. […] For ζ potential measurements, LNPs were diluted 1:200 in DDW. In some cases, as indicated, size and zeta potential measurements were performed in water.

[2] = system: Drug resistant human ovarian carcinoma cells (NAR); assay: PLK-1 expression by qPCR after LNP-siPLK-1 or LNP-siLuc; assay type: cell-based; details: 72 hrs
Experimental: (§1) The mRNA levels of pololike kinase 1 (PLK1 gene) in cells was quantified by real-time PCR, forty eight or Seventy-two hours post-transfection. Total RNA was isolated using the E-Z RNA purification kit (Biological industries, Beit Haemek, Israel), and 1 μg of RNA from each sample was reverse transcribed into cDNA using the High Capacity cDNA Reverse Transcription Kit (Applied Biosystems, Foster City, CA), Quantification of cDNA (5 ng total) was performed on the step one Sequence Detection System (Applied Biosystems, Foster City, CA) using syber green (Applied Biosystems). GAPDH was chosen as a housekeeping gene.
(§2) Supt1 or NAR or OVCAR cells were placed in tissue culture 12-wells plates at a density of 1×10^5 cells with 1 mL of full medium. LNPs containing different siRNAs (siPLK1 or siCD45 or siLUC) were added to the wells and the concentration was mentioned in figures. Cells were isolated at different time intervals mentioned in the figures and analyzed by either flow cytometry (for siCD45 knockdown), or qPCR for analysis of PLK1 silencing. Apoptosis assay using PI/Annexin was analyzed by flow cytometry in case of siPLK1 induced cell death.
Drug resistant human ovarian carcinoma cells (NAR) were treated with either LNP-siPLK-1 or LNP-siLuc nanoparticles Lipid 1 LNPs (A); Lipid 10&11 LNPs (B) for 72 hrs and PLK-1 expression was measured by qPCR as described in Example 1.

[3] = system: Human ovarian cancer cells (NAR cells); assay: Apoptosis by FACS using PI/Annexin after siPLK1-LNPs; assay type: cell-based; details: 48 hr; for Apoptosis induced by siPLK1-LNPs: PI/Annexin FACS
Experimental: as §2
Human ovarian cancer cells (NAR cells) were treated with lipid1/siPLK1 nanoparticles for 48 hr at different siRNA concentrations (0.2 μM and 0.1 μM). Apoptotic cells were analyzed by FACS using PI/Annexin. […] Percentage of early apoptotic cells was higher in cells treated with siPLK1-LNPs at 0.2 uM dose of siPLK1.
Human ovarian cancer cells (NAR cells) were treated with either lipid10 or lipid 11/siPLK1 nanoparticles for 48 hr at different siRNA concentrations (0.1 μM and 0.05 μM). siLUC-LNPs used as a negative control. Apoptotic cells were analyzed by FACS using PI/Annexin.

[4] = system: HEK 293 cells; assay: In vitro expression of mKATE-pDNA, flow cytometry; assay type: cell-based; details: 72 hr; for mKATE expression: HEK 293, 0.6 nM pDNA; for Dose dependence of mKATE expression: HEK 293, different amount pDNA
Experimental: In vitro expression of pDNA in HEK 293 cells: HEK cells were treated with LNPs composed of either lipid1 or lipid 10 encapsulated with mKATE-pDNA at the concentration of 0.6 nM pDNA. After 72 hr, mKATE expression was analyzed by flow cytometry.
Dose dependent expression of pDNA in HEK 293 cells: HEK cells were treated with LNPs composed of either lipid1 or lipid 10 encapsulated with mKATE-pDNA at different amount pDNA. After 72 hr, mKATE expression was analyzed by flow cytometry.

[5] = system: Human T cells SupT1; assay: In vitro CD45 gene silencing by LNP-siCD45, flow cytometry; assay type: cell-based; details: LNP with siCD45, 48 hrs or 72 hrs, 0.4, 0.2, 0.1 μM siRNA
Experimental: as §2
FIG. 1 depicts in vitro gene silencing effect lipid 1: Human T cells SupT1 were treated with lipid nanoparticle (LNP) comprising of cationic lipid 1 encapsulated siCD45 for 48 hrs (A) or 72 hrs (B) at different siRNA doses (0.4 μM, 0.2 μM, 0.1 μM).

[6] = system: Human ovarian carcinoma cells (OVCAR 8); assay: PLK-1 expression by qPCR after LNP-siPLK1 or siLUC; assay type: cell-based; details: OVCAR 8, 72 hr
Experimental: as §1, §2
Human ovarian carcinoma cells (OVCAR 8) were treated with lipid 1 containing LNPs with either siPLK1 or siLUC for 72 hr and PLK-1 expression was measured by qPCR.

[7] = system: Spheroids of drug resistant human ovarian carcinoma cells (NAR); assay: PLK-1 expression by qPCR in 3D spheroids; assay type: cell-based; details: 72 hr
Experimental: as §1
Spheroids of drug resistant human ovarian carcinoma cells (NAR) were treated with LNPs composed of lipid1 and with either siPLK-1 or siLuc s for 72 hr and PLK-1 expression was measured by qPCR. Spheroids are 3D cultures of tumor cells mimicking in vivo tumors.

[8] = system: Human colon carcinoma cells (HCT116); assay: Toxicity of LNPs with ctl siRNA, XTT cell viability; assay type: cell-based; details: 72 hrs
Experimental: Human colon carcinoma cells (HCT116) were incubated with LNPs with ctl siRNA (see methods) for 72 hrs. The cell viability was measured by XTT assay. Toxicity of LNPs composed of either lipid 38 or lipid 55 is compared with gold standard LNPs composed of Dlin-MC3-DMA.

[9] = system: Human multiple myeloma suspension cells (U266); assay: PLK1 expression by qPCR after siPLK1-LNPs; assay type: cell-based; details: U266, 48 hrs, normalized to LNPs-ctl siRNA treated cells
Experimental: as §1
Human multiple myeloma suspension cells (U266) were incubated with LNPs containing siPLK1 at different concentrations for 48 hrs. PLK1 expression was measured by qPCR. PLK1-mRNA levels were normalized to LNPs-ctl siRNA treated cells.

[10] = system: Human multiple myeloma suspension cells (U266); assay: Cell viability after PLK1 silencing, XTT assay; assay type: cell-based; details: U266, 48 hrs
Experimental: Human multiple myeloma suspension cells (U266) were incubated with siPLK1-LNPs or siCtl-LNPs composed of either lipid 38 or 55 at different concentrations for 48 hrs. Cell viability affected by PLK1 down regulation was measured by XTT assay.

[11] = system: Human B-cell lymphoma suspension cells (RPMI-8226); assay: Cell viability after PLK1 silencing, XTT assay; assay type: cell-based; details: RPMI-8226, 48 hrs
Experimental: Human B-cell lymphoma suspension cells (RPMI-8226) were incubated with siPLK1-LNPs or siCtl-LNPs composed of either lipid 38 or 55 at different concentrations for 48 hrs. Cell viability affected by PLK1 down regulation was measured by XTT assay.

[12] = system: Human multiple myeloma suspension cells (MM1); assay: Cell viability after PLK1 silencing, XTT assay; assay type: cell-based; details: MM1, 48 hrs
Experimental: Human multiple myeloma suspension cells (MM1) were incubated with siPLK1-LNPs or siCtl-LNPs composed of either lipid 38 or 55 at different concentrations for 48 hrs. Cell viability affected by PLK1 down regulation was measured by XTT assay.

Structure (SMILES)	Zeta-potential (mV) [1] [mV]	PDI [1]	Size (d · nm) [1] [nm]	further results
CCCCC/C=C\C/C=C\CCCCCCCCN(CCCCCCCC/C=C\C/C=C\CCCCC)NC(=O)CCCN(C)C [Lipid 10]	18.5	0.08	50.5	PLK-1 expression, LNP-siLuc control siRNA [2]: no effect on plk1 expression; PLK-1 expression, LNP-siPLK-1 [2]: down regulating plk1 gene efficiently at different doses; Apoptosis induced by siPLK1-LNPs [3]: efficiently downregulating PLK1 gene followed by inducing apoptosis in NAR cells; mKATE expression [4]: mKATE expression was observed; Dose dependence of mKATE expression [4]: dose dependent expression of mKATE
CCCCC/C=C\C/C=C\CCCCCCCCN(CCCCCCCC/C=C\C/C=C\CCCCC)NC(=O)[C@@H](N)CCCCN(C)C [Lipid 11, 2-amino-6-(dimethylamino)-N′,N′-di((9Z,12Z)-octadeca-9,12-dien-1-yl)hexanehydrazide]	20.4	0.10	108.5	PLK-1 expression, LNP-siLuc control siRNA [2]: no effect on plk1 expression; PLK-1 expression, LNP-siPLK-1 [2]: down regulating plk1 gene efficiently at different doses; Apoptosis induced by siPLK1-LNPs [3]: efficiently downregulating PLK1 gene followed by inducing apoptosis in NAR cells
CCCCC/C=C\C/C=C\CCCCCCCCN(CCCCCCCC/C=C\C/C=C\CCCCC)OC(=O)Cc1c[nH]cn1 [Lipid 33]	−10.8	0.15	46.0	
CCCCC/C=C\C/C=C\CCCCCCCCN(CCCCCCCC/C=C\C/C=C\CCCCC)NC(=O)CCCN1CCN(C)CC1 [Lipid 21]	−2.8	0.16	67.7	
CCCCC/C=C\C/C=C\CCCCCCCCNN(CCCCCCCC/C=C\C/C=C\CCCCC)CCCCN(C)C [Lipid 2]	13.9	0.06	56.3	
CCCCC/C=C\C/C=C\CCCCCCCCNN(CCCCCCCC/C=C\C/C=C\CCCCC)CCN(C)C [Lipid 1, 2-(1,2-di((9Z,12Z)-octadeca-9,12-dien-1-yl)hydrazinyl)-N,N-dimethylethan-1-amine]	18.5	0.14	45.1	CD45 gene down-regulation [5]: down-regulate CD45 gene in hard to transfect T cells; PLK-1 expression, LNP-siLuc control siRNA [2]: did not affect plk1 expression; PLK-1 expression, LNP-siPLK-1 [2]: downregulating the proto-oncogene PLK1 efficiently; Percentage of early apoptotic cells ([3]; 0.2 uM dose of siPLK1): higher; Apoptosis induced by siPLK1-LNPs [3]: inducing apoptosis in cancer cell; Effect on cell cycle of siLUC-LNPs ([3]; control siRNA): no effect on cell cycle; PLK-1 expression, siPLK1-LNPs [6]: efficiently downregulating PLK1 gene compared to dlin-mc3-dma containing LNPs; PLK-1 expression, siPLK1-LNPs [7]: significantly downregulating PLK1 gene compared to siLUC-LNPs; mKATE expression [4]: mKATE expression was observed; Dose dependence of mKATE expression [4]: did not show any dose dependent expression
CCCCC/C=C\C/C=C\CCCCCCCCN(CCCCCCCC/C=C\C/C=C\CCCCC)NCCN(C)C [Lipid 15]	10.1	0.11	52.5	
CCCCC/C=C\C/C=C\CCCCCCCCC(CCCCCCCC/C=C\C/C=C\CCCCC)OC(=O)CCCN(C)C [Dlin-MC3-DMA, reference compound]	−1	0.18	44.5	mKATE expression [4]: did not show any effect on mKATE expression
CCCCC/C=C\C/C=C\CCCCCCCCN(CCCCCCCC/C=C\C/C=C\CCCCC)OC(=O)CCCN(C)C [Lipid 14]	−3.6	0.09	44.3	
CCCCC/C=C\C/C=C\CCCCCCCCN(CCCCCCCC/C=C\C/C=C\CCCCC)OC(=O)CN(C)C [Lipid 9]	−13.6	0.04	75.1	
CCCCC/C=C\C/C=C\CCCCCCCCN(CCCCCCCC/C=C\C/C=C\CCCCC)CCOC(=O)CCCN1CCN(C)CC1 [Lipid 55]	−1.28	0.17	97.0	Toxicity of LNPs (cell viability) [8]: less toxic than LNPs composed of Dlin-MC3-DMA; PLK1 expression, siPLK1-LNPs [9]: efficiently down regulate; Cell viability, siCtl-LNPs [10]: no effect on the cell viability; Cell viability, siPLK1-LNPs [10]: more effect on cell viability compared to Dlin-MC3-DMA LNPs; Cell viability, siCtl-LNPs [11]: no effect on the cell viability; Cell viability, siPLK1-LNPs [11]: dose dependent effect on B-cell lymphoma cancer cell viability; Cell viability, siCtl-LNPs [12]: no effect on the cell viability; Cell viability, siPLK1-LNPs [12]: dose dependent effect on multiple myeloma cancer cell viability
